According to patent US9951043B2, “Therapeutic compounds” (Gilead Sciences, Inc., priority 2013, dated 2018):
Like-named read-outs stand apart in the source and are kept apart here.

Key:
[1] = test system: HIV-IIIb; assay: Test A: Antiviral Assay in MT4 Cells; format: cell-based, HIV-1; conditions: MT-4 cells infected with HIV-IIIb, 5 days, calculated from the dose response curve, values above 100 normalized to 100%; for inhibition at 0.2 µM / inhibition at 2 µM: Human immunodeficiency virus 1, IIIB, MT4, 120 h; for inhibition at 0.2 µM: read-out: % inhibition at 0.2 μM (percent inhibition of virus-induced cell killing), 0.2 μM drug concentration; for inhibition at 2 µM: read-out: % inhibition at 2 μM (percent inhibition of virus-induced cell killing), 2 μM drug concentration; for % inhibition at 0.2 μM (percent inhibition of virus-induced cell killing): 0.2 μM drug concentration; for % inhibition at 2 μM (percent inhibition of virus-induced cell killing): 2 μM drug concentration
Experimental: Test A: Antiviral Assay in MT4 Cells
(§1) MT-4 cells were next mixed with HIV-IIIb at an m.o.i of 0.003 for 1 hour, after which time 35 μL of virus/cell mixture (2000 cells) was immediately added to each well containing 40 μL of diluted compound. The plates were then incubated at 37° C. for 5 days. […] Cell lysis was carried out by incubating at room temperature for 10 min and then chemiluminescence was read.
The data above represent an average over time of each assay for each compound. […] Thus, the data reported in the tables include the data reported in the priority document, as well as data from assays run in the intervening period.

[2] = Test B: Cytotoxicity Assay; format: cell-based; conditions: human; uninfected MT-4 cells, same protocol as Test A, 5 days
Experimental: as §1
(§2) Test B: Cytotoxicity Assay
(§3) Compound cytotoxicity and the corresponding CC50 values was determined using the same protocol as described in the antiviral assay (Test A) except that uninfected cells were used.

[3] = test system: uninfected MT-4 cells; assay: Test B: Cytotoxicity Assay; format: cell-based
Experimental: as §1, §2, §3

SMILES | inhibition at 0.2 µM [1] [%] | inhibition at 2 µM [1] [%] | CC50 at 5 days [2] [µM] | % inhibition at 0.2 μM (percent inhibition of virus-induced cell killing) [1] [%] | % inhibition at 2 μM (percent inhibition of virus-induced cell killing) [1] [%] | CC50 [3] [µM] | CC50 ([3]; uninfected MT-4 cells, same protocol as Test A, 5 days, read-out: CC50) [µM]
COc1cc(-c2ccc(Cl)c3c(NS(C)(=O)=O)nn(C)c23)c([C@H](Cc2cc(F)cc(F)c2)NC(=O)Cn2nc(C(F)(F)F)c3c2C(F)(F)[C@@H]2C[C@H]32)nc1C#CC(C)(C)O [Compound 135B, N—((S)-1-(3-(4-chloro-1-methyl-3-(methylsulfonamido)-1H-indazol-7-yl)-6-(3-hydroxy-3-methylbut-1-yn-1-yl)-5-methoxypyridin-2-yl)-2-(3,5-difluorophenyl)ethyl)-2-((3bS,4aR)-5,5-difluoro-3-(trifluoromethyl)-3b,4,4a,5-tetrahydro-1H-cyclopropa[3,4]cyclopenta[1,2-c]pyrazol-1-yl)acetamide] | 93 | 93 | 14.2 | – | – | – | –
CC(C)(O)C#Cc1ccc(-c2cccc3c(N)n[nH]c23)c([C@H](Cc2cc(F)cc(F)c2)NC(=O)Cn2nc(C(F)(F)F)c3c2C(F)(F)[C@@H]2C[C@H]32)n1 [Compound 29B, N—((S)-1-(3-(3-amino-1H-indazol-7-yl)-6-(3-hydroxy-3-methylbut-1-yn-1-yl)pyridin-2-yl)-2-(3,5-difluorophenyl)ethyl)-2-((3bS,4aR)-5,5-difluoro-3-(trifluoromethyl)-3b,4,4a,5-tetrahydro-1H-cyclopropa[3,4]cyclopenta[1,2-c]pyrazol-1-yl)acetamide] | 80 | 81 | 15.3 | – | – | – | –
CC(C)(C)C#Cc1ccc(-c2cccn3c(NS(C)(=O)=O)nnc23)c([C@H](Cc2cc(F)cc(F)c2)NC(=O)Cn2nc(C(F)F)c3c2C(F)(F)[C@@H]2C[C@H]32)n1 [Compound 134, 2-((3bS,4aR)-3-(difluoromethyl)-5,5-difluoro-3b,4,4a,5-tetrahydro-1H-cyclopropa[3,4]cyclopenta[1,2-c]pyrazol-1-yl)-N—((S)-2-(3,5-difluorophenyl)-1-(6-(3,3-dimethylbut-1-yn-1-yl)-3-(3-(methylsulfonamido)-[1,2,4]triazolo[4,3-a]pyridin-8-yl)pyridin-2-yl)ethyl)acetamide] | 82 | 83 | 28 | – | – | – | –
Cn1nc(NS(C)(=O)=O)c2c(Cl)ccc(-c3ccc(-c4ccccn4)nc3[C@H](Cc3cc(F)cc(F)c3)NC(=O)Cn3nc(C(F)(F)F)c4c3C(F)(F)[C@@H]3C[C@H]43)c21 [Compound 172, N—((S)-1-(5-(4-chloro-1-methyl-3-(methylsulfonamido)-1H-indazol-7-yl)-[2,2′-bipyridin]-6-yl)-2-(3,5-difluorophenyl)ethyl)-2-((3bS,4aR)-5,5-difluoro-3-(trifluoromethyl)-3b,4,4a,5-tetrahydro-1H-cyclopropa[3,4]cyclopenta[1,2-c]pyrazol-1-yl)acetamide] | – | – | 0.061 | – | – | – | –
Cn1nc(NS(C)(=O)=O)c2cccc(-c3ccc(C#C[C@@H](N)CO)nc3[C@H](Cc3cc(F)cc(F)c3)NC(=O)Cn3nc(C(F)(F)F)c4c3C(F)(F)[C@@H]3C[C@H]43)c21 [Compound 59B, N—((S)-1-(6-((R)-3-amino-4-hydroxybut-1-yn-1-yl)-3-(1-methyl-3-(methylsulfonamido)-1H-indazol-7-yl)pyridin-2-yl)-2-(3,5-difluorophenyl)ethyl)-2-((3bS,4aR)-5,5-difluoro-3-(trifluoromethyl)-3b,4,4a,5-tetrahydro-1H-cyclopropa[3,4]cyclopenta[1,2-c]pyrazol-1-yl)acetamide] | 94 | 94 | 22.4 | – | – | – | –
CCC(O)C#Cc1ccc(-c2ccc(Cl)c3c(NS(C)(=O)=O)nn(C)c23)c([C@H](Cc2cc(F)cc(F)c2)NC(=O)Cn2nc(C(F)(F)F)c3c2C(F)(F)[C@@H]2C[C@H]32)n1 (stereo partly drawn) [Compound 145, N-((1S)-1-(3-(4-chloro-1-methyl-3-(methylsulfonamido)-1H-indazol-7-yl)-6-(3-hydroxypent-1-yn-1-yl)pyridin-2-yl)-2-(3,5-difluorophenyl)ethyl)-2-((3bS,4aR)-5,5-difluoro-3-(trifluoromethyl)-3b,4,4a,5-tetrahydro-1H-cyclopropa[3,4]cyclopenta[1,2-c]pyrazol-1-yl)acetamide] | 99 | 99 | 8.69 | – | – | – | –
Cc1ccc(-c2ccc(C#CC(C)(C)O)nc2[C@H](Cc2cc(F)cc(F)c2)NC(=O)Cn2nc(C(F)F)c3c2C(F)(F)[C@@H]2C[C@H]32)c2c1c(NS(N)(=O)=O)nn2C [Compound 71, 2-((3bS,4aR)-3-(difluoromethyl)-5,5-difluoro-3b,4,4a,5-tetrahydro-1H-cyclopropa[3,4]cyclopenta[1,2-c]pyrazol-1-yl)-N—((S)-2-(3,5-difluorophenyl)-1-(3-(1,4-dimethyl-3-(sulfamoylamino)-1H-indazol-7-yl)-6-(3-hydroxy-3-methylbut-1-yn-1-yl)pyridin-2-yl)ethyl)acetamide] | 87 | 87 | 9.51 | – | – | – | –
Cn1cc(-c2ccc(-c3ccc(Cl)c4c(NS(C)(=O)=O)nn(C)c34)c([C@H](Cc3cc(F)cc(F)c3)NC(=O)Cn3nc(C(F)(F)F)c4c3C(F)(F)[C@@H]3C[C@H]43)n2)cn1 [Compound 173, N—((S)-1-(3-(4-chloro-1-methyl-3-(methylsulfonamido)-1H-indazol-7-yl)-6-(1-methyl-1H-pyrazol-4-yl)pyridin-2-yl)-2-(3,5-difluorophenyl)ethyl)-2-((3bS,4aR)-5,5-difluoro-3-(trifluoromethyl)-3b,4,4a,5-tetrahydro-1H-cyclopropa[3,4]cyclopenta[1,2-c]pyrazol-1-yl)acetamide] | 92 | 92 | > 43.7 | – | – | – | –
Cn1nc(NS(C)(=O)=O)c2c(Cl)ccc(-c3ccc(C#CC(C)(C)O)nc3[C@H](Cc3cc(F)cc(F)c3)NC(=O)Cn3nc(N)c4c3C(F)(F)[C@@H]3C[C@H]43)c21 [Compound 148B, 2-((3bS,4aR)-3-amino-5,5-difluoro-3b,4,4a,5-tetrahydro-H-cyclopropa[3,4]cyclopenta[1,2-c]pyrazol-1-yl)-N—((S)-1-(3-(4-chloro-1-methyl-3-(methylsulfonamido)-1H-indazol-7-yl)-6-(3-hydroxy-3-methylbut-1-yn-1-yl)pyridin-2-yl)-2-(3,5-difluorophenyl)ethyl)acetamide] | – | – | – | 83 | 83 | 23.3 | –
Cn1nc(NS(C)(=O)=O)c2c(Cl)ccc(-c3ccc(C#CC(C)(C)N)nc3[C@H](Cc3cc(F)cc(F)c3)NC(=O)Cn3nc(C(F)F)c4c3C(F)(F)[C@@H]3C[C@H]43)c21 [Compound 128B, N—((S)-1-(6-(3-amino-3-methylbut-1-yn-1-yl)-3-(4-chloro-1-methyl-3-(methylsulfonamido)-1H-indazol-7-yl)pyridin-2-yl)-2-(3,5-difluorophenyl)ethyl)-2-((3bS,4aR)-3-(difluoromethyl)-5,5-difluoro-3b,4,4a,5-tetrahydro-1H-cyclopropa[3,4]cyclopenta[1,2-c]pyrazol-1-yl)acetamide] | – | – | – | 93 | 94 | – | 4.18
